Measurements taken from ChEMBL document CHEMBL1201862, “PubChem BioAssay data set” (2004).
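Results reflect a 48-hour exposure of cells in 96-well plates to compound at five concentrations. GI50 marks 50% less growth.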 Active and inactive are the calls of the source. Cut-off read from the data, not from the text of the source: active = GI50 up to about 1.1 µM and inactive = higher.

Key:
Assay in all cases: NCI anticancer screen, dose series, 48 h
COLO 205 = tested on: COLO 205
OVCAR-8 = tested on: OVCAR-8
SW-620 = tested on: SW-620
M14 = tested on: M14
TK-10 = tested on: TK-10
UO-31 = tested on: UO-31
NCI-H23 = tested on: NCI-H23
RXF 393 = tested on: RXF 393
NCI-H460 = tested on: NCI-H460
EKVX = tested on: EKVX
MDA-N = tested on: MDA-N
HOP-62 = tested on: HOP-62
SK-MEL-28 = tested on: SK-MEL-28
SNB-19 = tested on: SNB-19
DU-145 = tested on: DU-145
UACC-257 = tested on: UACC-257
IGROV-1 = tested on: IGROV-1
HOP-92 = tested on: HOP-92
NCI/ADR-RES = tested on: NCI/ADR-RES
Hs-578T = tested on: Hs-578T

Row | Structure (SMILES) | GI50 (COLO 205) | GI50 (OVCAR-8) | GI50 (SW-620) | GI50 (M14) | GI50 (TK-10) | GI50 (UO-31) | GI50 (NCI-H23) | GI50 (RXF 393) | GI50 (NCI-H460) | GI50 (EKVX) | GI50 (MDA-N) | GI50 (HOP-62) | GI50 (SK-MEL-28) | GI50 (SNB-19) | GI50 (DU-145) | GI50 (UACC-257) | GI50 (IGROV-1) | GI50 (HOP-92) | GI50 (NCI/ADR-RES) | GI50 (Hs-578T)
1 | O=c1[nH]c(=O)n(COCCOCc2ccccc2)cc1Nc1ccccc1 | > 100 µM (inactive) | > 100 µM (inactive) | > 100 µM (inactive) | > 100 µM (inactive) | > 100 µM (inactive) | > 100 µM (inactive) | > 100 µM (inactive) | > 100 µM (inactive) | > 100 µM (inactive) | > 100 µM (inactive) | > 100 µM (inactive) | > 100 µM (inactive) | > 100 µM (inactive) | > 100 µM (inactive) | > 100 µM (inactive) | > 100 µM (inactive) | > 100 µM (inactive) | > 100 µM (inactive) | > 100 µM (inactive) | –
2 | S=C(Nc1cccc(Cl)c1)Nc1ccccn1 | > 100 µM (inactive) | > 100 µM (inactive) | > 100 µM (inactive) | > 100 µM (inactive) | > 100 µM (inactive) | > 100 µM (inactive) | – | > 100 µM (inactive) | > 100 µM (inactive) | 82 µM (inactive) | – | > 100 µM (inactive) | > 100 µM (inactive) | > 100 µM (inactive) | > 100 µM (inactive) | > 100 µM (inactive) | > 100 µM (inactive) | – | > 100 µM (inactive) | > 100 µM (inactive)
3 | C=CCN1CCC(O)(c2cc(C(=O)OCC)[nH]c2-c2cc(C)no2)C1 (stereo unspecified) | > 100 µM (inactive) | > 100 µM (inactive) | > 100 µM (inactive) | > 100 µM (inactive) | > 100 µM (inactive) | > 100 µM (inactive) | > 100 µM (inactive) | > 100 µM (inactive) | > 100 µM (inactive) | > 100 µM (inactive) | > 100 µM (inactive) | – | > 100 µM (inactive) | > 100 µM (inactive) | > 100 µM (inactive) | > 100 µM (inactive) | > 100 µM (inactive) | > 100 µM (inactive) | > 100 µM (inactive) | –
4 | CSc1nc(Cl)c(Br)c(Nc2cnc(O)nc2O)n1 | 16.8 µM (inactive) | 15.6 µM (inactive) | 27.1 µM (inactive) | 27.9 µM (inactive) | 14.7 µM (inactive) | 20.3 µM (inactive) | 17.3 µM (inactive) | 22.1 µM (inactive) | – | 15.3 µM (inactive) | 23 µM (inactive) | 16.9 µM (inactive) | 29.5 µM (inactive) | 20.2 µM (inactive) | 15.6 µM (inactive) | 19.2 µM (inactive) | 6.34 µM (inactive) | 13.1 µM (inactive) | 19.7 µM (inactive) | –
5 | O=C/C(=C(/Cl)c1ccc(O)cc1)c1ccccc1 | 23 µM (inactive) | 35.9 µM (inactive) | 27.6 µM (inactive) | 27.8 µM (inactive) | 29 µM (inactive) | 21 µM (inactive) | 24.4 µM (inactive) | 21.6 µM (inactive) | 33.2 µM (inactive) | 28.2 µM (inactive) | – | – | 20.7 µM (inactive) | 41.2 µM (inactive) | 62.5 µM (inactive) | 31.2 µM (inactive) | 26 µM (inactive) | 16.6 µM (inactive) | – | –
6 | COc1cc(C2c3cccc4cccc(c34)C3CCC(=O)N32)cc(OC)c1O (stereo unspecified) | > 50 µM (inactive) | > 50 µM (inactive) | > 50 µM (inactive) | > 50 µM (inactive) | – | > 50 µM (inactive) | > 50 µM (inactive) | > 50 µM (inactive) | > 50 µM (inactive) | > 50 µM (inactive) | > 50 µM (inactive) | > 50 µM (inactive) | > 50 µM (inactive) | > 50 µM (inactive) | > 50 µM (inactive) | > 50 µM (inactive) | > 50 µM (inactive) | > 50 µM (inactive) | > 50 µM (inactive) | –
7 | COc1ccc(C2C3=C(COC3=O)Oc3cc4c(cc32)OCO4)cc1 (stereo unspecified) | 13 µM (inactive) | 36.2 µM (inactive) | 6.21 µM (inactive) | 17.7 µM (inactive) | 29.3 µM (inactive) | 16.7 µM (inactive) | 20.1 µM (inactive) | 19.1 µM (inactive) | 10.8 µM (inactive) | 50.5 µM (inactive) | – | 8.39 µM (inactive) | 47.9 µM (inactive) | 61.4 µM (inactive) | – | 39.3 µM (inactive) | 32.2 µM (inactive) | 14.9 µM (inactive) | – | –
8 | CC(C)(C)[C@H]1CO[C@]2(C)[C@@H]3C[C@@H]3C(=O)N12 | > 100 µM (inactive) | > 100 µM (inactive) | > 100 µM (inactive) | > 100 µM (inactive) | > 100 µM (inactive) | > 100 µM (inactive) | > 100 µM (inactive) | > 100 µM (inactive) | > 100 µM (inactive) | > 100 µM (inactive) | – | > 100 µM (inactive) | > 100 µM (inactive) | > 100 µM (inactive) | – | > 100 µM (inactive) | > 100 µM (inactive) | > 100 µM (inactive) | – | –
9 | Cc1ccccc1C1=[N+]([O-])c2ccccc2C1=O | 15.7 µM (inactive) | 16.7 µM (inactive) | 26.4 µM (inactive) | 18.4 µM (inactive) | 18.3 µM (inactive) | 19.1 µM (inactive) | 20.3 µM (inactive) | 21.9 µM (inactive) | 19.7 µM (inactive) | 21 µM (inactive) | – | 23.1 µM (inactive) | 20.7 µM (inactive) | 46.1 µM (inactive) | – | 14.7 µM (inactive) | 18.3 µM (inactive) | 49.4 µM (inactive) | – | –
10 | CCCNC1=NC(C)=CSC(Nc2ccccc2)=C1C#N | > 100 µM (inactive) | > 100 µM (inactive) | > 100 µM (inactive) | > 100 µM (inactive) | > 100 µM (inactive) | > 100 µM (inactive) | > 100 µM (inactive) | > 100 µM (inactive) | – | – | > 100 µM (inactive) | > 100 µM (inactive) | > 100 µM (inactive) | > 100 µM (inactive) | > 100 µM (inactive) | – | – | – | > 100 µM (inactive) | –
11 | CCOC(=O)C1=C(Nc2cccc3ccccc23)OC/C1=N\NC(=O)c1ccccc1O | 15.5 µM (inactive) | 17 µM (inactive) | 18.8 µM (inactive) | 21.9 µM (inactive) | 21.1 µM (inactive) | 4.88 µM (inactive) | 4.09 µM (inactive) | 3.96 µM (inactive) | 14.8 µM (inactive) | 21.3 µM (inactive) | – | 13.5 µM (inactive) | 22.3 µM (inactive) | 22.1 µM (inactive) | – | 22.9 µM (inactive) | 4.26 µM (inactive) | 11.1 µM (inactive) | – | –
12 | CC1[C@@]2(CCC(C)(C)O2)O[C@@H]2C=C3C4CCC5Cc6nc7c(nc6C[C@@]5(C)C4C[C@H](O)[C@@]3(C)[C@]12O)CC1CCC2C3=C[C@H]4O[C@@]5(O[C@@](C)(CO)C[C@@H]5O)C(C)[C@@]4(O)[C@]3(C)[C@@H](O)CC2[C@]1(C)C7 (stereo partly specified) | 0.163 µM (active) | 0.753 µM (active) | 0.064 µM (active) | 0.04 µM (active) | 0.681 µM (active) | 0.047 µM (active) | 0.118 µM (active) | 0.00641 µM (active) | 0.0388 µM (active) | 0.175 µM (active) | – | 0.0272 µM (active) | 0.0553 µM (active) | 0.224 µM (active) | – | 0.138 µM (active) | 0.248 µM (active) | 0.0524 µM (active) | 0.619 µM (active) | –
